According to article PMC11990452, “Discovery of MAGL Inhibition by Lophine Derivatives: An Unexpected Finding from Chemiluminescent Assay Development” (Molecules, 2025):

Assays:
[1] = biological target: T1, human recombinant monoacylglycerol lipase (hMAGL) (Homo sapiens, UniProt Q99685); experiment: fluorometric 7-HRO hydrolysis assay, residual activity at […]; type: biochemical
T1 construct: gene MGLL
T1 sequence (Q99685 1-303): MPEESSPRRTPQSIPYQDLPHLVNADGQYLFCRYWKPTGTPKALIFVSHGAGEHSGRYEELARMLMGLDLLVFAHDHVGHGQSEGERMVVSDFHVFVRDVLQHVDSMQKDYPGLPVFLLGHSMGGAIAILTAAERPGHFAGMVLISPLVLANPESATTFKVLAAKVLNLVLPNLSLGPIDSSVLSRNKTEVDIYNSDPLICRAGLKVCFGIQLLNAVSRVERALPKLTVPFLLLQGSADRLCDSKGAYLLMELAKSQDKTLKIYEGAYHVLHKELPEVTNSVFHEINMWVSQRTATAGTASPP

[2] = biological target: T1, human recombinant monoacylglycerol lipase (hMAGL); experiment: fluorometric 7-HRO hydrolysis assay with recombinant hMAGL; dilution reversibility and Lineweaver-Burk kinetics; type: biochemical

IC50 [2] [µM]	SMILES	fluorometric 7-HRO hydrolysis assay, residual activity at 50 nM-100 μM [1]
–	Oc1ccc(-c2nc(-c3ccccc3)c(-c3ccccc3)[nH]2)cc1 [compound 1, 2-(4-Hydroxyphenyl)-4,5-Diphenylimidazole]	all tested compounds interact with MAGL, leading to a concentration-dependent reduction in enzyme activity
–	CCCC(=O)Oc1ccc(-c2nc(-c3ccccc3)c(-c3ccccc3)[nH]2)cc1 [compound 2, Butyric Acid Ester of 2-(4-Hydroxyphenyl)-4,5-Diphenylimidazole]	all tested compounds interact with MAGL, leading to a concentration-dependent reduction in enzyme activity
21	CCCCCCCC(=O)Oc1ccc(-c2nc(-c3ccccc3)c(-c3ccccc3)[nH]2)cc1 [compound 3, Octanoic Acid Ester of 2-(4-Hydroxyphenyl)-4,5-Diphenylimidazole]	–
6.5	CCCCCCCCCCCCCCCC(=O)Oc1ccc(-c2nc(-c3ccccc3)c(-c3ccccc3)[nH]2)cc1 [compound 4, Palmitic Acid Ester of 2-(4-Hydroxyphenyl)-4,5-Diphenylimidazole]	–
